Reference: US20260176300A1, “N-ARYLPYRAZOLE NOD2 AGONISTS AS PROMOTERS OF IMMUNE CHECKPOINT INHIBITOR THERAPY” (THE SCRIPPS RESEARCH INSTITUTE, priority 2022, published 2026)
Entries after “also recorded” stand apart in the source; their conditions may differ.

Assays:
[1] = tested on: human peripheral mononuclear blood cells (PBMCs); experiment: Cytokine release assay in primary human PBMCs; type: cell-based; conditions: 10 μM, 24 h
Method: (§1) FIG. 3(A-H). NOD2 agonist TT030 activates cytokine production in vitro and improves immune checkpoint inhibitor treatment of tumor growth in vivo. A-D, Measurements of secreted cytokine levels from human peripheral mononuclear blood cells (PMBCs) treated with the indicated compounds for 24 h without or with lipopolysaccharide (LPS). E, Structures of TT030 and its enantiomer (TT030-ent). F, Activation of NOD1- and NOD2-expressing HEK-293T cells with the indicated compounds. C12-iE-DAP is a lipophilic version of the NOD1 agonist, iE-DAP. G, Growth profiles of B16-F10 subcutaneous tumors in wild-type C57BL/6 mice treated with 100 μg α-PD-L1 and 100 μg of the indicated compounds every other day starting at Day 7. H, Growth profiles of B16-F10 subcutaneous tumors in wild-type or Nod2^−/− C57BL/6 mice treated with 100 μg α-PD-L1 and 100 μg TT030 every other day starting at Day 7. Cytokine secretion assays and NOD activation assays were analyzed using a one-way ANOVA with Dunnett's multiple comparisons test compared to the DMSO control. Longitudinal tumor growth assays were analyzed using linear mixed-effects model analysis on the log transformed data. ns=not significant, *P<0.05, **P<0.01, ***P<0.001, ****P<0.0001.
FIG. 7(A-B). NOD2 agonist TT030 activates cytokine production in vitro. A-B, Measurements of secreted cytokine levels from human peripheral mononuclear blood cells (PMBCs) treated with the indicated compounds for 24 h without or with lipopolysaccharide (LPS). Cytokine secretion assays and NOD activation assays were analyzed using a one-way ANOVA with Dunnett's multiple comparisons test compared to the DMSO control. *P<0.05, **P<0.01.
Cytokine release assay. Human PMBCs were obtained from whole blood donated by healthy individuals via the Scripps Normal Blood Donor Service. Whole blood was diluted 1:1 with phosphate-buffered saline (PBS) containing 2% FBS and then layered onto Lymphoprep (STEMCELL Technologies, 07851) in SepMate-50 isolation tubes (STEMCELL Technologies, 85480). The discontinuous gradient was centrifuged for 10 min at 1,200×g, and mononuclear cells were removed by pouring off. Mononuclear cells were then resuspended in PBS+2% FBS and centrifuged for 3 min at 200×g twice before further use. Washed mononuclear cells were then aliquoted at 5×10^5 cells per well of a 48-well plate with 300 μL RPMI containing 10% FBS (complete RPMI). Cells were then diluted with 100 μL complete RPMI containing 50 μM of the test compound (10 μM final concentration). Then, 100 μL complete RPMI (-LPS) or 100 μL complete RPMI containing […] LPS (+LPS, 10 ng mL^−1 final concentration) was added. Cells were incubated overnight at 37° C. in 5% CO2, and conditioned medium was harvested and centrifuged for 5 min at 500×g to remove residual cells. Samples were used directly for cytokine analysis with the LEGENDPlex Human Inflammatory Panel 1 (BioLegend, 740809) according to the manufacturer's protocol. For analysis, 25 μL of the conditioned medium was used for −LPS samples, and 12.5 μL was used for the +LPS samples. On-bead ELISA readouts were measured using the standard PE and APC detection filter parameters on a ZE5 flow cytometer (Bio-Rad; 405, 488, 561, and 640 lasers) in the Scripps Research Flow Cytometry Core Facility. Raw data files were then imported into the LEGENDPlex Cloud Data Analysis software suite (BioLegend) and analyzed using the manufacturer's pre-set parameters.

[2] = tested on: B16-F10 subcutaneous tumors; experiment: B16-F10 tumor growth assay with anti-PD-L1 co-treatment; type: in vivo, mice; conditions: for B16 tumor growth over time: wild-type C57BL/6 mice, 100 μg α-PD-L1 and 100 μg compound i.p. every other day
Method: as §1
Animals. Specific pathogen-free, eight-week old male C57BL/6J (B6, 000664) and B6.129S1—Nod2^tm1Flv/J (Nod2^−/−, 005763 from Flavell Lab, Yale School of Medicine) were obtained from The Jackson Laboratory. Animals were housed in autoclaved caging with SaniChip bedding and enrichment for nest building on a 12-hour light/dark cycle. Animals were provided gamma-irradiated chow (LabDiet, 5053) and sterile drinking water ad libitum. Animal care and experiments were conducted in accordance with NIH guidelines and approved by the Institutional Animal Care and Use Committee at Scripps Research (Protocol AUP-21-095).
Tumor growth assay. B16-F10 cells were subcultured on the day prior to harvesting for tumor inoculation. On the day of injection, cells were harvested using TrypLE Express, washed and resuspended in cold PBS, and counted with a hemocytometer. Cells were then resuspended at 2×10^6 cells mL^−1 in PBS and mixed 1:1 with Matrigel matrix (Corning; growth factor reduced, 356231). Cell suspensions were kept on ice prior to injection. Animals were anesthetized using 3% isoflurane, and their right flank was shaved with hair clippers. Animals were then subcutaneously injected with 100 μL of the cell suspension on their mid-right flank (1×10^5 cells per injection). Once tumors were established at roughly 25-100 mm^3, tumor volume was measured every other day. Digital calipers were used to measure the length and width of each tumor, and tumor volume was calculated as length×[…], where width was the smaller of the two measurements. […]

Row | SMILES | IFNγ levels ([1]; without or with LPS) | interleukin-1 beta (IL-1B) in the medium ([1]; without or with LPS) | tumor necrosis factor alpha (TNFα) in the medium ([1]; without or with LPS) | B16 tumor growth over time [2] | IL-12p70 secretion ([1]; with and without LPS) | IL-18 production ([1]; without or with LPS) | IL-23 production ([1]; without or with LPS) | Anti-tumor activity in Nod2−/− mice ([2]; Nod2−/− vs. wild-type C57BL/6 mice, 100 μg α-PD-L1 and 100 μg TT030 every other day)
1 | CC(=O)N[C@H]1C(O)O[C@H](CO)[C@@H](O)[C@@H]1O[C@H](C)C(=O)N[C@@H](C)C(=O)N[C@H](CCC(=O)O)C(N)=O (stereo partly drawn) [MDP, (4R)-4-((2S)-2-((2R)-2-(((3R,4R,5S,6R)-3-acetamido-2,5-dihydroxy-6-(hydroxymethyl)tetrahydro-2H-pyran-4-yl)oxy)propanamido)propanamido)-5-amino-5-oxopentanoic acid, reference compound] | increased | significant increase | significant increase | significantly inhibited tumor growth |  |  |  | 
2 | CCOC(=O)CC[C@@H](NC(=O)[C@@H](NC(=O)c1c(C)nn(-c2cc[nH]c(=O)c2)c1C)C(C)C)C(=O)OCC [TT030, Diethyl (3,5-dimethyl-1-(2-oxo-1,2-dihydropyridin-4-yl)-1H-pyrazole-4-carbonyl)-L-valyl-D-glutamate] | increased | equivalent concentrations | equivalent concentrations | anti-tumor activity was also observed; also recorded: equivalent anti-tumor activity as MDP | increase | production | production | loss in the anti-tumor activity
